Data taken from patent US8815915B2, “Benzofuran-2-sulfonamides pyridine derivatives as chemokine receptor modulators” (Allergan, Inc., priority 2012, dated 2014).
Like-named read-outs stand apart in the source and are kept apart here.

Target: T1, CCR2 receptor (Homo sapiens, UniProt P41597)
T1 construct: expressed in transfected cells
Assay: compound-induced calcium activity on FLIPR Tetra in HEK-Gqi5 cells stably expressing CCR2
Type: cell-based
Procedure: HEK-Gqi5 cells stably expressing CCR2 were cultured in (DMEM high glucose, 10% FBS, 1% PSA, 400 μg/ml geneticin and 50 μg/ml hygromycin. Appropriate positive control chemokines (MCP-1, MIP1A or RANTES) was used as the positive control agonist for screening compound-induced calcium activity assayed on the FLIPR^Tetra. The drug plates were prepared in 384-well microplates using the EP3 and the MultiPROBE robotic liquid handling systems. Compounds were synthesized and tested for CCR2 activity.

[1] = CCR2 receptor, HEK-Gqi5 cells stably expressing CCR2, calcium FLIPR Tetra
[2] = CCR2 receptor, HEK-Gqi5 cells stably expressing CCR2, calcium FLIPR Tetra, read-out: IC50

T1 sequence (P41597 whole entry): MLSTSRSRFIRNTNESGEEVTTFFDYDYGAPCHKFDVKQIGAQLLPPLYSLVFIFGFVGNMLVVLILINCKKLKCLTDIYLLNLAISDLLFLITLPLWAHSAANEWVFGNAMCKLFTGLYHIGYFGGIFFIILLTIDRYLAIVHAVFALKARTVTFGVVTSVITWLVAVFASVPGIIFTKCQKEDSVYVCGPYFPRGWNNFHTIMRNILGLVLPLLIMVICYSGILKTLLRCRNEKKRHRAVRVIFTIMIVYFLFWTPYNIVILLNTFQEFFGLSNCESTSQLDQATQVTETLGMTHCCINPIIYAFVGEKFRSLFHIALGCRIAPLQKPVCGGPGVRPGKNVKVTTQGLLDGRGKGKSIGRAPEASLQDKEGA

Structure (SMILES) | % ANTAGONISM [1] [%] | IC50 [2] [nM] | IC50 [nM]
COC(=O)c1ccccc1CS(=O)(=O)c1ncc(Cl)cc1NS(=O)(=O)c1cc2ccccc2o1 [Compound 38, methyl 2-[({3-[(1-benzofuran-2-ylsulfonyl)amino]-5-chloropyridin-2-yl}sulfonyl)methyl]benzoate] | 97 | 180 | –
Nc1cccc(CS(=O)(=O)c2ncccc2NS(=O)(=O)c2cc3ccccc3o2)c1 [Compound 14, N-{2-[(3-aminobenzyl)sulfonyl]pyridin-3-yl}-1-benzofuran-2-sulfonamide] | 102 | 71 | –
O=C1CCN(C(=O)c2ncc(Cl)cc2NS(=O)(=O)c2cc3ccccc3o2)CC1 [Compound 28, N-{5-chloro-2-[(4-oxopiperidin-1-yl)carbonyl]pyridin-3-yl}-1-benzofuran-2-sulfonamide] | 105 | – | 24
O=S(=O)(Nc1cc(Cl)cnc1S(=O)(=O)c1ccccc1)c1cc2ccccc2o1 [Compound 31, N-[5-chloro-2-(phenylsulfonyl)pyridin-3-yl]-1-benzofuran-2-sulfonamide] | 105 | 17 | –
O=C(O)c1ccccc1CS(=O)(=O)c1ncc(Cl)cc1NS(=O)(=O)c1cc2ccccc2o1 [Compound 39, 2-[({3-[(1-benzofuran-2-ylsulfonyl)amino]-5-chloropyridin-2-yl}sulfonyl)methyl]benzoic acid] | 32 | 2690 | –
COC(=O)c1ccccc1CSc1ncc(Cl)cc1NS(=O)(=O)c1cc2ccccc2o1 [Compound 35, methyl 2-[({3-[(1-benzofuran-2-ylsulfonyl)amino]-5-chloropyridin-2-yl}sulfanyl)methyl]benzoate] | 91 | 4250 | –
O=C(O)c1ccccc1CSc1ncccc1NS(=O)(=O)c1cc2ccccc2o1 [Compound 57, 2-[({3-[(1-benzofuran-2-ylsulfonyl)amino]pyridin-2-yl}sulfanyl)methyl]benzoic acid] | 98 | 493 | –
O=S(=O)(Nc1cc(Cl)cnc1[S+]([O-])Cc1ccccc1)c1cc2ccccc2o1 (centres unmarked) [Compound 2, N-[2-(benzylsulfinyl)-5-chloropyridin-3-yl]-1-benzofuran-2-sulfonamide] | 94 | 31 | –
O=C(O)c1ccccc1[S+]([O-])c1ncc(Cl)cc1NS(=O)(=O)c1cc2ccccc2o1 (centres unmarked) [Compound 50, 2-({3-[(1-benzofuran-2-ylsulfonyl)amino]-5-chloropyridin-2-yl}sulfinyl)benzoic acid] | 5 | 1950 | –
Cc1cnc(SCc2ccccc2)c(NS(=O)(=O)c2cc3ccccc3o2)c1 [Compound 21, N-[2-(benzylsulfanyl)-5-methylpyridin-3-yl]-1-benzofuran-2-sulfonamide] | 80 | 194 | –
Cc1cnc(S(=O)(=O)c2ccccc2)c(NS(=O)(=O)c2cc3ccccc3o2)c1 [Compound 46, N-[5-methyl-2-(phenylsulfonyl)pyridin-3-yl]-1-benzofuran-2-sulfonamide] | 57 | 1440 | –
O=C(O)c1ccccc1Oc1ncc(Cl)cc1NS(=O)(=O)c1cc2ccccc2o1 [Compound 26, 2-({3-[(1-benzofuran-2-ylsulfonyl)amino]-5-chloropyridin-2-yl}oxy)benzoic acid] | 97 | 157 | –
Nc1cccc(C[S+]([O-])c2ncc(Cl)cc2NS(=O)(=O)c2cc3ccccc3o2)c1 (centres unmarked) [Compound 19, N-{2-[(3-aminobenzyl)sulfinyl]-5-chloropyridin-3-yl}-1-benzofuran-2-sulfonamide] | 97 | 101 | –
COC(=O)c1ccccc1C[S+]([O-])c1ncccc1NS(=O)(=O)c1cc2ccccc2o1 (centres unmarked) [Compound 58, methyl 2-[({3-[(1-benzofuran-2-ylsulfonyl)amino]pyridin-2-yl}sulfinyl)methyl]benzoate] | 102 | 198 | –
Cc1ncccc1COc1ncc(Cl)cc1NS(=O)(=O)c1cc2ccccc2o1 [Compound 33, N-{5-chloro-2-[(2-methylpyridin-3-yl)methoxy]pyridin-3-yl}-1-benzofuran-2-sulfonamide] | 102 | 251 | –
O=S(=O)(Nc1cc(F)cnc1SCc1ccccc1)c1cc2ccccc2o1 [Compound 15, N-[2-(benzylsulfanyl)-5-fluoropyridin-3-yl]-1-benzofuran-2-sulfonamide] | 94 | 125 | –
Nc1cccc(CSc2ncc(Cl)cc2NS(=O)(=O)c2cc3ccccc3o2)c1 [Compound 18, Benzofuran-2-sulfonic acid [2-(3-amino-benzylsulfanyl)-5-chloro-pyridin-3-yl]-amide] | 98 | 95 | –
O=S(=O)(Cc1cccnc1)c1ncc(Cl)cc1NS(=O)(=O)c1cc2ccccc2o1 [Compound 6, N-{5-chloro-2-[(pyridin-3-ylmethyl)sulfonyl]pyridin-3-yl}-1-benzofuran-2-sulfonamide] | 84 | 2140 | –

Structure (SMILES) | % ANTAGONISM [1] [%] | IC50 [2] [nM] | IC50 [nM]
O=S(=O)(Nc1cc(Cl)cnc1[S+]([O-])Cc1cccnc1)c1cc2ccccc2o1 (centres unmarked) [Compound 5, N-{5-chloro-2-[(pyridin-3-ylmethyl)sulfinyl]pyridin-3-yl}-1-benzofuran-2-sulfonamide] | 99 | 201 | –
CC(C)(C)OC(=O)Nc1cccc(CS(=O)(=O)c2ncccc2NS(=O)(=O)c2cc3ccccc3o2)c1 [Compound 13, tert-butyl {3-[({3-[(1-benzofuran-2-ylsulfonyl)amino]pyridin-2-yl}sulfonyl)methyl]phenyl}carbamate] | 102 | 497 | –
COC(=O)c1ccccc1CS(=O)(=O)c1ncccc1NS(=O)(=O)c1cc2ccccc2o1 [Compound 60, methyl 2-[({3-[(1-benzofuran-2-ylsulfonyl)amino]pyridin-2-yl}sulfonyl)methyl]benzoate] | 101 | 86 | –
Cc1cnc(S(=O)(=O)Cc2ccccc2)c(NS(=O)(=O)c2cc3ccccc3o2)c1 [Compound 23, N-[2-(benzylsulfonyl)-5-methylpyridin-3-yl]-1-benzofuran-2-sulfonamide] | 96 | 12 | –
COC(=O)c1ccccc1Oc1ncc(Cl)cc1NS(=O)(=O)c1cc2ccccc2o1 [Compound 25, methyl 2-({3-[(1-benzofuran-2-ylsulfonyl)amino]-5-chloropyridin-2-yl}oxy)benzoate] | 93 | 215 | –
O=S(=O)(Cc1ccccc1)c1ncc(Cl)cc1NS(=O)(=O)c1cc2ccccc2o1 [Compound 3, N-[2-(benzylsulfonyl)-5-chloropyridin-3-yl]-1-benzofuran-2-sulfonamide] | 90 | 19 | –
O=C(c1ccccc1)c1ncc(Cl)cc1NS(=O)(=O)c1cc2ccccc2o1 [Compound 29, N-[5-chloro-2-(phenylcarbonyl)pyridin-3-yl]-1-benzofuran-2-sulfonamide] | 100 | 36 | –
O=S(=O)(Nc1cc(Cl)cnc1[S+]([O-])c1ccccc1)c1cc2ccccc2o1 (centres unmarked) [Compound 32, N-[5-chloro-2-(phenylsulfinyl)pyridin-3-yl]-1-benzofuran-2-sulfonamide] | 99 | 7 | –
O=S(=O)(Cc1ccccc1)c1ncccc1NS(=O)(=O)c1cc2ccccc2o1 [Compound 10, N-[2-(benzylsulfonyl)pyridin-3-yl]-1-benzofuran-2-sulfonamide] | 95 | 16 | –
O=S(=O)(Nc1cc(F)cnc1[S+]([O-])Cc1ccccc1)c1cc2ccccc2o1 (centres unmarked) [Compound 16, N-[2-(benzylsulfinyl)-5-fluoropyridin-3-yl]-1-benzofuran-2-sulfonamide] | 95 | 18 | –
Nc1cccc(CS(=O)(=O)c2ncc(Cl)cc2NS(=O)(=O)c2cc3ccccc3o2)c1 [Compound 20, N-(2-((3-aminobenzyl)sulfonyl)-5-chloropyridin-3-yl)benzofuran-2-sulfonamide] | 100 | 142 | –
O=C(O)c1ccccc1CSc1ncc(Cl)cc1NS(=O)(=O)c1cc2ccccc2o1 [Compound 36, 2-[({3-[(1-benzofuran-2-ylsulfonyl)amino]-5-chloropyridin-2-yl}sulfanyl)methyl]benzoic acid] | 97 | 340 | –
O=S(=O)(Nc1cccnc1[S+]([O-])Cc1ccccc1)c1cc2ccccc2o1 (centres unmarked) [Compound 9, N-[2-(benzylsulfinyl)pyridin-3-yl]-1-benzofuran-2-sulfonamide] | 100 | 27 | –
O=S(=O)(Nc1cc(Cl)cnc1SCc1ccccc1)c1cc2ccccc2o1 [Compound 1, N-[2-(benzylthio)-5-chloropyridin-3-yl]-1-benzofuran-2-sulfonamide] | 83 | 252 | –
O=S(=O)(Nc1cccnc1SCc1ccccc1)c1cc2ccccc2o1 [Compound 8, N-[2-(benzylthio)pyridin-3-yl]-1-benzofuran-2-sulfonamide] | 80 | 3010 | –
O=S(=O)(Nc1cc(F)cnc1Sc1ccccc1)c1cc2ccccc2o1 [Compound 40, N-[5-fluoro-2-(phenylsulfanyl)pyridin-3-yl]-1-benzofuran-2-sulfonamide] | 65 | 469 | –
Nc1cccc(CSc2ncccc2NS(=O)(=O)c2cc3ccccc3o2)c1 [Compound 11, N-{2-[(3-aminobenzyl)sulfanyl]pyridin-3-yl}-1-benzofuran-2-sulfonamide] | 99 | 102 | –
O=C(O)c1ccccc1CS(=O)(=O)c1ncccc1NS(=O)(=O)c1cc2ccccc2o1 [Compound 61, 2-[({3-[(1-benzofuran-2-ylsulfonyl)amino]pyridin-2-yl}sulfonyl)methyl]benzoic acid] | 57 | – | –
